Reference: EP1021178B1, “SELENOPHENE ANTI-TUMOR AGENTS” (Purdue Research Foundation, priority 1996, dated 1997)

How the values were obtained:
Test in all cases: NCI human tumor cell panel
Assay type in all cases: cell-based
786-0 = conditions: 786-0, read-out: Log10 LC50 (converted)
DU-145 = conditions: DU-145, read-out: Log10 LC50 (converted)
MOLT-4 = conditions: MOLT-4, read-out: Log10 LC50 (converted)
OVCAR-4 = conditions: OVCAR-4, read-out: Log10 LC50 (converted)
A498 = conditions: A498, read-out: Log10 LC50 (converted)
SF-539 = conditions: SF-539, read-out: Log10 LC50 (converted)
K-562 = conditions: K562, read-out: Log10 LC50 (converted)
NCI-H460 = conditions: NCI-H460, read-out: Log10 LC50 (converted)
NCI-H322M = conditions: read-out: Log10 LC50 (converted)
M14 = conditions: M14, read-out: Log10 LC50 (converted)
A549/ATCC = conditions: A549, read-out: Log10 LC50 (converted)
SK-MEL-28 = conditions: SK-MEL-28, read-out: Log10 LC50 (converted)
IGROV1 = conditions: IGROV-1, read-out: Log10 LC50 (converted)
SR = conditions: read-out: Log10 LC50 (converted)
HCT-116 = conditions: HCT-116, read-out: Log10 LC50 (converted)
UACC-62 = conditions: UACC-62, read-out: Log10 LC50 (converted)
HOP-62 = conditions: HOP-62, read-out: Log10 LC50 (converted)
HCT-15 = conditions: HCT-15, read-out: Log10 LC50 (converted)
HOP-92 = conditions: HOP-92, read-out: Log10 LC50 (converted)
HCC-2998 = conditions: HCC 2998, read-out: Log10 LC50 (converted)
BT-549 = conditions: BT-549, read-out: Log10 LC50 (converted)

| SMILES | CC50 (786-0) [µM] | CC50 (DU-145) [µM] | CC50 (MOLT-4) [µM] | CC50 (OVCAR-4) [µM] | CC50 (A498) [µM] | CC50 (SF-539) [µM] | LC50 (K-562) [µM] | LC50 (concentration killing 50% of cells) (NCI-H460) [µM] | LC50 (concentration killing 50% of cells) (NCI-H322M) [µM] | CC50 (M14) [µM] | CC50 (A549/ATCC) [µM] | CC50 (SK-MEL-28) [µM] | CC50 (IGROV1) [µM] | CC50 (SR) [µM] | CC50 (HCT-116) [µM] | CC50 (UACC-62) [µM] | CC50 (HOP-62) [µM] | CC50 (HCT-15) [µM] | CC50 (HOP-92) [µM] | CC50 (HCC-2998) [µM] | further results |
| --- | --- | --- | --- | --- | --- | --- | --- | --- | --- | --- | --- | --- | --- | --- | --- | --- | --- | --- | --- | --- | --- |
| OCc1ccc(-c2ccc(-c3ccc[se]3)s2)[se]1 | > 100 | > 100 | > 100 | > 100 | 0.302 | > 100 | > 100 | > 100 | > 100 | > 100 | > 100 | > 100 | 51.3 | > 100 | > 100 | > 100 | > 100 | > 100 | > 100 | > 100 | CC50 (BT-549): 87.1 µM |
| OCc1ccc(-c2ccc(-c3cccs3)[se]2)s1 | > 100 | > 100 | > 100 | > 100 | 0.0661 | > 100 | > 100 | > 100 | > 100 | > 100 | > 100 | > 100 | 16.2 | > 100 | 2.95 | > 100 | > 100 | > 100 | > 100 | 9.77 | CC50 (BT-549): > 100 µM |
| OCc1ccc(-c2ccc(-c3ccc(CO)[se]3)s2)[se]1 | > 100 | > 100 | > 100 | > 100 | 0.0955 | > 100 | > 100 | > 100 | > 100 | > 100 | > 100 | > 100 | > 100 | > 100 | > 100 | > 100 | > 100 | > 100 | 0.324 | 2.45 | CC50 (BT-549): > 100 µM |
| O=Cc1ccc(-c2ccc(-c3ccc(C=O)[se]3)s2)s1 | 64.6 | > 100 | > 100 | > 100 | 0.331 | > 100 | > 100 | > 100 | > 100 | > 100 | > 100 | > 100 | 91.2 | > 100 | > 100 | > 100 | > 100 | > 100 | > 100 | > 100 | CC50 (BT-549): > 100 µM |
